Results from patent US4992455A, “Thiazolidin-4-one derivatives useful for treating diseases caused by platelet activating factor” (Sumitomo Pharmaceuticals Company, Limited, priority 1987, dated 1991).
Counter-ions that a name gives are not always drawn.

The compounds below were run on fatal effect of PAF on mice (assay: Test for inhibition of fatal effect of PAF on mice). Conditions: 10 mg/kg iv, PAF 10 μg/kg iv, 2 hours after PAF.
Type: in vivo, Male ICR mice
Procedure: Male ICR mice (perchased from Charles River Co.) aged 4 weeks were anesthetized by injecting subcutaneously 100 mg/kg of Isomital® soda (sodium amobarbital supplied by Nippon Shinyaku Co., Ltd.). After 18 minutes, the mice were injected with a test compound or a solvent through tail veins. The test compound was dissolved in a 0.2 M phosphate buffer solution to a concentration of 1 mg/ml and 10 ml/kg of this solution was injected (dose of test compound 10 mg/kg). Two minutes after this administration, the mice were injected with 10 μg/kg of PAF through tail veins. The PAF was dissolved in physiological saline containing 0.25% of bovine serum albumin to a concentration of 2 μg/ml, and the mice were injected with 5 ml/kg of this solution.
After PAF administration, the mice were observed and the survival rate of mice 2 hours later was determined.

Point of comparison: `CCCCCC[C@H]1S[C@H](c2cccnc2)N(CCN(C)C)C1=O` (relative stereo) [compound 174], Survival rate 80%. Against it:
- C[C@H]1S[C@@H](c2cccnc2)N(C)C1=O (relative stereo) [compound 182, 3,5-dimethyl-2-(3-pyridyl)thiazolidin-4-one hydrochloride] — higher, 100%
- CCCCCCC[C@H]1S[C@H](c2cccnc2)N(CCN(C)C)C1=O (relative stereo) [compound 175] — lower, 60%
